Experimental data reported in US11512079B2, “Heterocycle substituted pyridine derivative antifungal agents” (Amplyx Pharmaceuticals, Inc., priority 2017, dated 2022).
Converted amounts (≈) assume the structure as drawn.

How the values were obtained:
C. neoformans strain H99 = experiment: Murine model of cryptococcal meningitis, dosing in the presence of the pan-CYP inhibitor ABT, CD-1 mice; assay type: in vivo, Cryptococcus neoformans; conditions: for reduction of CFU in brain vs untreated control / reduction of CFU in lung vs untreated control: preliminary experiment, 100 mg/kg ABT PO 2 h prior to each dose, n=5
Experimental: Efficacy of exemplary compounds in a murine model of cryptococcal meningitis when dosed in the presence of the pan-CYP inhibitor ABT. […] 100 mg/kg ABT was administered orally to male CD-1 mice 2 h prior to compound administration. Mice were injected with 6.9×10^4 CFU C. neoformans strain H99 per mouse via lateral tail vein at T=0 h. Treatment with each prodrug was initiated about 1 h post-infection by IP administration and continued daily for 7 days with 100 mg/kg ABT administered orally 2 h prior to each dose of compound. The mean log10 CFU/g brain and lung counts in untreated control mice were 7.83±0.09 and 4.67±0.88, respectively (FIG. 1).
[…] A 60 mg/kg dose QD without ABT was also evaluated as a control.
Cryptococcal meningitis model. C. neoformans strain H99 was grown in YPD broth at 30° C. on a shaker (220 rpm) for 24 h, centrifuged (1980 ref) and washed twice in PBS, resuspended in PBS, and quantified by hemacytometric count. CD-1 male mice were infected with ˜5×10^4 CFU per mouse via lateral tail vein injection of 100 μL. Mice were weighed, and treatment was within 1 h after infection. Treatments were administered daily for seven days. Mice were weighed daily and observed for acute and chronic adverse symptoms. Mice were sacrificed on day 8, and brain and left lung were homogenized and cultured for quantitative determination of tissue burden (CFU per gram of tissue). Tissues were homogenized for 25 seconds in […] phosphate buffered saline using two 6.5 mm steel beads and a Mini-Beadbeater 16 (Biospec Products, Inc., Bartlesville, Okla.), and serially diluted in 10-fold steps. Aliquots ([…]) of homogenate were plated and incubated for 3 to 7 days at 37° C. Fungal burden data were log10 transformed and evaluated using Kruskal-Wallis tests with Dunn's Multiple Comparison Test for Post-hoc analysis (Prism 5; GraphPad Software, Inc., San Diego, Calif.). A P value of ≤0.05 is considered statistically significant.

[1] = system: Cryptococcus neoformans H99; experiment: In vitro antifungal assay (Example IX), microdilution broth, MIC; assay type: cell-based; conditions: minimum inhibitory concentration (≥50% inhibition), 35° C., 72 h, RPMI1640
Procedure, shortened: (§1)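 Yeast inocula (2.5×10^3 cells/mL, RPMI1640) were exposed to twofold compound series reaching 2-0.0019 μg/mL final, per CLSI yeast methodology. Incubation at 35° C. ran 40-48 h for Candida albicans 90028 and 72 h for Cryptococcus neoformans H99. MIC endpoints were confirmed by absorbance at 600 nm.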

Candida albicans 90028 = experiment: as above; assay type: cell-based; conditions: minimum inhibitory concentration (≥50% inhibition), 35° C., 40-48 h, RPMI1640
Procedure, shortened: as §1

[2] = system: Aspergillus fumigatus MYA3626; experiment: In vitro antifungal assay (Example IX), microdilution broth, MEC; assay type: cell-based; conditions: minimum effective concentration (shortening of hyphae), 35° C., 40-48 h, RPMI1640
Procedure, shortened: (§2)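 Read-out is the minimum effective concentration: lowest compound level causing shorter hyphae than in DMSO controls, echinocandin-style. Broth microdilution used conidia or spores harvested from agar plates, cleared of mycelium and clumps, at a final 1-2×10^4 spores/mL in RPMI1640.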

[3] = system: Rhizomucor pusillus 46342; experiment: as above; assay type: cell-based; conditions: minimum effective concentration (shortening of hyphae), 35° C., 40-48 h, RPMI1640
Procedure, shortened: as §2

Cryptococcus gattii = experiment: In vitro antifungal assay (Example IX), microdilution broth, MIC; assay type: cell-based; conditions: minimum inhibitory concentration (≥50% inhibition), 35° C., 72 h (Cryptococcus), RPMI1640
Procedure, shortened: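 MIC was determined from OD600 after 72 h at 35 °C for Cryptococcus, in RPMI1640 inoculated at 2.5×10^3 cells/mL. Compounds were tested as a 2-fold series from 2 to 0.0019 μg/mL final, added from DMSO intermediates at a 100-fold dilution.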

[4] = in the presence of ABT, 20 mg/kg Ex. 172 prodrug, 60 mg/kg Ex. 173 prodrug, 80 mg/kg Compound 1

SMILES	MIC [1] [µg/mL]	MIC (Candida albicans 90028) [µg/mL]	MIC (Cryptococcus gattii) [µg/mL]	log10 CFU/g brain reductions at doses of similar AUC (approximately 80 μg·h/mL) (C. neoformans strain H99; [4]) [log10 CFU/g]	log10 CFU/g lung reductions at doses of similar AUC (approximately 80 μg·h/mL) (C. neoformans strain H99; [4]) [log10 CFU/g]	reduction of CFU in brain vs untreated control (C. neoformans strain H99; 34 mg/kg QD IP 7 days) [log10 CFU/g]	reduction of CFU in lung vs untreated control (C. neoformans strain H99; 34 mg/kg QD IP 7 days) [log10 CFU/g]	reduction of CFU in brain vs untreated control (C. neoformans strain H99; 85 mg/kg QD IP 7 days) [log10 CFU/g]	reduction of CFU in lung vs untreated control (C. neoformans strain H99; 85 mg/kg QD IP 7 days) [log10 CFU/g]	minimal effective concentration [2] [µg/mL]	minimal effective concentration [3] [µg/mL]
Nc1c(-c2cc(Cc3ccc(OCc4ccccc4)cc3)no2)ccc[n+]1COP(=O)([O-])O	–	–	–	1.45	1.55	1.66	1.07	2.72	3.28	–	–
Nc1ncccc1-c1cc(Cc2ccc(Oc3cc(F)cc(F)n3)cc2)no1 [compound 239, 3-(3-(4-((4,6-difluoropyridin-2-yl)oxy)benzyl)isoxazol-5-yl)pyridin-2-amine]	0.01 to 0.1 (≈ 0.0263 to 0.263 µM)	0.1 to 1 (≈ 0.263 to 2.63 µM)	0.01 to 0.1 (≈ 0.0263 to 0.263 µM)	–	–	–	–	–	–	0.1 to 1	0.1 to 1
Nc1ncccc1-c1cc(Cc2ccc(Oc3nc(Cl)cs3)cc2)no1 [compound 240, 3-(3-(4-((4-chlorothiazol-2-yl)oxy)benzyl)isoxazol-5-yl)pyridin-2-amine]	0.01 to 0.1 (≈ 0.026 to 0.26 µM)	0.1 to 1 (≈ 0.26 to 2.6 µM)	0.01 to 0.1 (≈ 0.026 to 0.26 µM)	–	–	–	–	–	–	0.1 to 1	0.1 to 1
Nc1ncccc1-c1cc(Cc2ccc(Oc3ncccn3)cc2)no1 [compound 243, 3-(3-(4-(pyrimidin-2-yloxy)benzyl)isoxazol-5-yl)pyridin-2-amine]	0.1 to 1 (≈ 0.29 to 2.9 µM)	0.1 to 1 (≈ 0.29 to 2.9 µM)	0.1 to 1 (≈ 0.29 to 2.9 µM)	–	–	–	–	–	–	0.1 to 1	> 1
Nc1ncccc1-c1cc(Cc2ccc(Oc3ccc(F)cn3)cc2)no1 [compound 246, 3-(3-(4-((5-fluoropyridin-2-yl)oxy)benzyl)isoxazol-5-yl)pyridin-2-amine]	0.01 to 0.1 (≈ 0.0276 to 0.276 µM)	0.1 to 1 (≈ 0.276 to 2.76 µM)	0.1 to 1 (≈ 0.276 to 2.76 µM)	–	–	–	–	–	–	0.01 to 0.1	0.1 to 1
Nc1ncccc1-c1cc(Cc2cnc(OCc3ccccc3)c(F)c2)no1 [compound 257, 3-(3-((6-(benzyloxy)-5-fluoropyridin-3-yl)methyl)isoxazol-5-yl)pyridin-2-amine]	0.1 to 1 (≈ 0.266 to 2.66 µM)	0.01 to 0.1 (≈ 0.0266 to 0.266 µM)	> 1	–	–	–	–	–	–	0.01 to 0.1	0.1 to 1
Nc1ncccc1-c1cc(Cc2ccc(Cc3cc(F)nc(F)c3)cc2)no1 [compound 261, 3-(3-(4-((2,6-difluoropyridin-4-yl)methyl)benzyl)isoxazol-5-yl)pyridin-2-amine]	0.1 to 1 (≈ 0.264 to 2.64 µM)	0.1 to 1 (≈ 0.264 to 2.64 µM)	0.1 to 1 (≈ 0.264 to 2.64 µM)	–	–	–	–	–	–	0.1 to 1	0.1 to 1

Now from value to compound, other results behind:

MIC [1] [µg/mL]	MIC (Candida albicans 90028) [µg/mL]	MIC (Cryptococcus gattii) [µg/mL]	SMILES	log10 CFU/g brain reductions at doses of similar AUC (approximately 80 μg·h/mL) (C. neoformans strain H99; [4]) [log10 CFU/g]	log10 CFU/g lung reductions at doses of similar AUC (approximately 80 μg·h/mL) (C. neoformans strain H99; [4]) [log10 CFU/g]	reduction of CFU in brain vs untreated control (C. neoformans strain H99; 34 mg/kg QD IP 7 days) [log10 CFU/g]	reduction of CFU in lung vs untreated control (C. neoformans strain H99; 34 mg/kg QD IP 7 days) [log10 CFU/g]	reduction of CFU in brain vs untreated control (C. neoformans strain H99; 85 mg/kg QD IP 7 days) [log10 CFU/g]	reduction of CFU in lung vs untreated control (C. neoformans strain H99; 85 mg/kg QD IP 7 days) [log10 CFU/g]	minimal effective concentration [2] [µg/mL]	minimal effective concentration [3] [µg/mL]
0.1 to 1 (≈ 0.252 to 2.52 µM)	0.1 to 1 (≈ 0.252 to 2.52 µM)	0.1 to 1 (≈ 0.252 to 2.52 µM)	Nc1ncccc1-c1cc(Cc2ccc(Oc3ncc(Cl)cc3F)cc2)no1 [compound 236, 3-(3-(4-((5-chloro-3-fluoropyridin-2-yl)oxy)benzyl)isoxazol-5-yl)pyridin-2-amine]	–	–	–	–	–	–	0.1 to 1	0.1 to 1
0.01 to 0.1 (≈ 0.0264 to 0.264 µM)	0.01 to 0.1 (≈ 0.0264 to 0.264 µM)	0.01 to 0.1 (≈ 0.0264 to 0.264 µM)	Nc1ncccc1-c1cc(Cc2ccc(Nc3c(F)cccc3F)nc2)no1 [compound 237, 5-((5-(2-aminopyridin-3-yl)isoxazol-3-yl)methyl)-N-(2,6-difluorophenyl)pyridin-2-amine]	–	–	–	–	–	–	0.1 to 1	> 1
0.01 to 0.1 (≈ 0.0251 to 0.251 µM)	0.1 to 1 (≈ 0.251 to 2.51 µM)	0.01 to 0.1 (≈ 0.0251 to 0.251 µM)	Nc1ncccc1-c1cc(Cc2ccc(Oc3nc(F)c(F)cc3F)cc2)no1 [compound 241, 3-(3-(4-((3,5,6-trifluoropyridin-2-yl)oxy)benzyl)isoxazol-5-yl)pyridin-2-amine]	–	–	–	–	–	–	0.01 to 0.1	0.1 to 1
0.01 to 0.1 (≈ 0.0263 to 0.263 µM)	0.01 to 0.1 (≈ 0.0263 to 0.263 µM)	≤ 0.01	Nc1ncccc1-c1cc(Cc2ccc(Oc3ncc(F)cc3F)cc2)no1 [compound 242, 3-(3-(4-((3,5-difluoropyridin-2-yl)oxy)benzyl)isoxazol-5-yl)pyridin-2-amine]	–	–	–	–	–	–	0.01 to 0.1	0.1 to 1
0.1 to 1 (≈ 0.264 to 2.64 µM)	0.1 to 1 (≈ 0.264 to 2.64 µM)	0.1 to 1 (≈ 0.264 to 2.64 µM)	Nc1ncccc1-c1cc(Cc2ccc(Nc3cc(F)ccc3F)nc2)no1 [compound 244, 5-((5-(2-aminopyridin-3-yl)isoxazol-3-yl)methyl)-N-(2,5-difluorophenyl)pyridin-2-amine]	–	–	–	–	–	–	0.1 to 1	> 1
0.1 to 1 (≈ 0.252 to 2.52 µM)	0.1 to 1 (≈ 0.252 to 2.52 µM)	0.1 to 1 (≈ 0.252 to 2.52 µM)	Nc1ncccc1-c1cc(Cc2ccc(Nc3ccc(F)c(F)c3F)nc2)no1 [compound 245, 5-((5-(2-aminopyridin-3-yl)isoxazol-3-yl)methyl)-N-(2,3,4-trifluorophenyl)pyridin-2-amine]	–	–	–	–	–	–	0.1 to 1	> 1
0.01 to 0.1 (≈ 0.0264 to 0.264 µM)	0.01 to 0.1 (≈ 0.0264 to 0.264 µM)	0.1 to 1 (≈ 0.264 to 2.64 µM)	Nc1ncccc1-c1cc(Cc2cnc(Nc3ccccc3F)c(F)c2)no1 [compound 250, 5-((5-(2-aminopyridin-3-yl)isoxazol-3-yl)methyl)-3-fluoro-N-(2-fluorophenyl)pyridin-2-amine]	–	–	–	–	–	–	0.01 to 0.1	0.1 to 1
0.1 to 1 (≈ 0.252 to 2.52 µM)	0.1 to 1 (≈ 0.252 to 2.52 µM)	0.1 to 1 (≈ 0.252 to 2.52 µM)	Nc1ncccc1-c1cc(Cc2cnc(Nc3c(F)cccc3F)c(F)c2)no1 [compound 253, 5-((5-(2-aminopyridin-3-yl)isoxazol-3-yl)methyl)-N-(2,6-difluorophenyl)-3-fluoropyridin-2-amine]	–	–	–	–	–	–	0.1 to 1	> 1
0.01 to 0.1 (≈ 0.0263 to 0.263 µM)	0.1 to 1 (≈ 0.263 to 2.63 µM)	0.1 to 1 (≈ 0.263 to 2.63 µM)	Nc1ncccc1-c1cc(Cc2ccc(Oc3cccc(F)n3)c(F)c2)no1 [compound 258, 3-(3-(3-fluoro-4-((6-fluoropyridin-2-yl)oxy)benzyl)isoxazol-5-yl)pyridin-2-amine]	–	–	–	–	–	–	0.01 to 0.1	0.1 to 1
